Assay results published in ChEMBL document CHEMBL1147185, “Comparative rates of sialylation by recombinant trans-sialidase and inhibitor properties of synthetic oligosaccharides from Trypanosoma cruzi mucins-containing galactofuranose and galactopyranose” (Bioorg Med Chem, 2007).

Experiment: Inhibition of Trypanosoma cruzi trans-sialidase after 15 mins

Compound	IC50 [µM]
OC[C@@H]1O[C@H](O[C@@H]2[C@H](O)[C@H](CO)O[C@H](OCc3ccccc3)[C@H]2O[C@@H]2O[C@H](CO)[C@H](O)[C@H](O)[C@H]2O)[C@@H](O)[C@H](O)[C@@H]1O	1130
O=C(COCc1ccccc1)N[C@H]1[C@H](OCc2ccccc2)O[C@@H](CO[C@@H]2O[C@H](CO)[C@H](O)[C@H](O[C@H]3O[C@@H](CO)[C@@H](O)[C@@H](O)[C@@H]3O)[C@H]2O[C@@H]2O[C@H](CO)[C@H](O)[C@H](O)[C@H]2O)[C@H](O[C@@H]2O[C@@H]([C@H](O)CO)[C@H](O)[C@H]2O)[C@H]1O	700
O=C(COCc1ccccc1)N[C@H]1[C@@H](OCc2ccccc2)O[C@H](CO[C@@H]2O[C@H](CO)[C@H](O)[C@H](O)[C@H]2O)[C@@H](O[C@H]2O[C@H]([C@@H](O)CO)[C@@H](O)[C@@H]2O)[C@@H]1O	860
O=C(CO)N[C@H]1[C@H](OCc2ccccc2)O[C@@H](CO[C@@H]2O[C@H](CO)[C@H](O)[C@H](O[C@H]3O[C@@H](CO)[C@@H](O)[C@@H](O)[C@@H]3O)[C@H]2O[C@@H]2O[C@H](CO)[C@H](O)[C@H](O)[C@H]2O)[C@H](O[C@@H]2O[C@@H]([C@H](O)CO)[C@H](O)[C@H]2O)[C@H]1O	610
CC(=O)N[C@H]1[C@H](OCc2ccccc2)O[C@@H](CO[C@@H]2O[C@H](CO)[C@H](O)[C@H](O[C@H]3O[C@@H](CO)[C@@H](O)[C@@H](O)[C@@H]3O)[C@H]2O[C@@H]2O[C@H](CO)[C@H](O)[C@H](O)[C@H]2O)[C@H](O[C@@H]2O[C@@H]([C@H](O)CO)[C@H](O)[C@H]2O)[C@H]1O	850
CC(=O)N[C@H]1[C@@H](OCc2ccccc2)O[C@H](CO[C@@H]2O[C@H](CO)[C@H](O)[C@H](O)[C@H]2O)[C@@H](O)[C@@H]1O	2220
O=C(COCc1ccccc1)N[C@H]1[C@@H](OCc2ccccc2)O[C@H](CO)[C@@H](O[C@@H]2O[C@@H]([C@H](O)CO)[C@H](O)[C@H]2O[C@@H]2O[C@H](CO)[C@H](O)[C@H](O)[C@H]2O)[C@@H]1O	850
O=C(CO)N[C@H]1[C@@H](OCc2ccccc2)O[C@H](CO)[C@@H](O[C@@H]2O[C@@H]([C@H](O)CO)[C@H](O)[C@H]2O[C@@H]2O[C@H](CO)[C@H](O)[C@H](O)[C@H]2O)[C@@H]1O	1670
O=C(CO)N[C@H]1[C@@H](OCc2ccccc2)O[C@H](CO[C@@H]2O[C@H](CO)[C@H](O)[C@H](O)[C@H]2O)[C@@H](O)[C@@H]1O	980

Second part, the compound after the results:

IC50 [µM]	Compound
940	O=C(CO)N[C@H]1[C@@H](OCc2ccccc2)O[C@H](CO[C@@H]2O[C@H](CO)[C@H](O)[C@H](O)[C@H]2O)[C@@H](O[C@H]2O[C@H]([C@@H](O)CO)[C@@H](O)[C@@H]2O)[C@@H]1O
1110	O=C(COCc1ccccc1)N[C@H]1[C@@H](OCc2ccccc2)O[C@H](CO[C@@H]2O[C@H](CO)[C@H](O)[C@H](O)[C@H]2O)[C@@H](O)[C@@H]1O
1330	CC(=O)N[C@H]1[C@@H](OCc2ccccc2)O[C@H](CO[C@@H]2O[C@H](CO)[C@H](O)[C@H](O)[C@H]2O)[C@@H](O[C@H]2O[C@H]([C@@H](O)CO)[C@@H](O)[C@@H]2O)[C@@H]1O
1140	O=C(COCc1ccccc1)N[C@H]1[C@H](OCc2ccccc2)O[C@@H](CO[C@H]2O[C@@H](CO)[C@@H](O)[C@@H](O[C@H]3O[C@@H](CO)[C@@H](O)[C@H](O)[C@@H]3O)[C@@H]2O)[C@H](O[C@@H]2O[C@@H]([C@H](O)CO)[C@H](O)[C@H]2O)[C@H]1O
760	CC(=O)N[C@H]1[C@H](OCc2ccccc2)O[C@@H](CO[C@H]2O[C@@H](CO)[C@@H](O)[C@@H](O[C@H]3O[C@@H](CO)[C@@H](O)[C@H](O)[C@@H]3O)[C@@H]2O)[C@H](O[C@@H]2O[C@@H]([C@H](O)CO)[C@H](O)[C@H]2O)[C@H]1O
1260	O=C(CO)N[C@H]1[C@H](OCc2ccccc2)O[C@@H](CO[C@H]2O[C@@H](CO)[C@@H](O)[C@@H](O[C@H]3O[C@@H](CO)[C@@H](O)[C@H](O)[C@@H]3O)[C@@H]2O)[C@H](O[C@@H]2O[C@@H]([C@H](O)CO)[C@H](O)[C@H]2O)[C@H]1O
4430	CC(=O)N[C@H]1[C@@H](OCc2ccccc2)O[C@H](CO)[C@@H](O[C@@H]2O[C@@H]([C@H](O)CO)[C@H](O)[C@H]2O[C@@H]2O[C@H](CO)[C@H](O)[C@H](O)[C@H]2O)[C@@H]1O
